Data set [1] in a line: Stability of compound in rat liver homogenate at 0.4 mg/mL measured after 24 hrs by HPLC analysis. Particulars: tissue homogenate. Format: ADME, tissue-based.
Data set [2] has as its target Histone deacetylase 9 (Homo sapiens, UniProt Q9UKV0). Briefly: Inhibition of human HDAC9 using Boc-Lys (tri-fluoroacetyl)-AMC as substrate incubated for 1 hr followed by substrate addition and further incubated for 2 hrs by fluorescence assay.
The target in data set [3] is Histone deacetylase 4 (Homo sapiens, UniProt P56524). Briefly: Inhibition of human HDAC4 using Boc-Lys (tri-fluoroacetyl)-AMC as substrate incubated for 1 hr followed by substrate addition and further incubated for 2 hrs by fluorescence assay.
The target in data set [4] is Histone deacetylase 3 (Homo sapiens, UniProt O15379). Briefly: Inhibition of human HDAC3 using Boc-Lys (acetyl)-AMC as substrate incubated for 1 hr followed by substrate addition and further incubated for 2 hrs by fluorescence assay.
Data set [5] can be described thus: Stability of compound in artificial intestinal juice at 0.4 mg/mL measured after 24 hrs by HPLC analysis. Particulars: simulated gi fluid. Format: ADME.
Data set [6] in a line: Stability of compound in human plasma at […] measured after 24 hrs by HPLC analysis. Format: ADME, cell-free.
Data set [7] has as its target T1, Polyamine deacetylase HDAC10 (Homo sapiens, UniProt Q969S8).
T1 sequence (Q969S8 whole entry): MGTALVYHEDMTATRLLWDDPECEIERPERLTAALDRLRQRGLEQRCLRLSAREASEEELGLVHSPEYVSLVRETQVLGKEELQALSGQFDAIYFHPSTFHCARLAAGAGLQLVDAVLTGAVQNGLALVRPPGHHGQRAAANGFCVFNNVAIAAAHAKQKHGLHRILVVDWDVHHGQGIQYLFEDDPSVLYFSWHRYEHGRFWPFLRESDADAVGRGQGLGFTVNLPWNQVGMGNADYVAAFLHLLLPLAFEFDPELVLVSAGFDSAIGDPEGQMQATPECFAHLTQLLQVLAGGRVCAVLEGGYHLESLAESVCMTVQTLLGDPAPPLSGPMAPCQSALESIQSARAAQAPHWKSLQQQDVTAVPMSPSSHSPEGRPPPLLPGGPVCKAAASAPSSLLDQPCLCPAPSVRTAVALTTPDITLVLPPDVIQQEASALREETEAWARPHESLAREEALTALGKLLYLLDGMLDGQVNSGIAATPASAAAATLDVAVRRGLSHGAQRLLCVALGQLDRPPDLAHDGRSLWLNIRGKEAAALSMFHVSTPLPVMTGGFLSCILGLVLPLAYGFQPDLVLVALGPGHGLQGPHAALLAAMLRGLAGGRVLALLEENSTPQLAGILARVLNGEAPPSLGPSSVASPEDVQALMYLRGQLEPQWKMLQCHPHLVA
Briefly: Inhibition of human HDAC10 using Boc-Lys (tri-fluoroacetyl)-AMC as substrate incubated for 1 hr followed by substrate addition and further incubated for 2 hrs by fluorescence assay.

Data set [8] addresses T2, Protein deacetylase HDAC6 (Homo sapiens, UniProt Q9UBN7).
T2 sequence (Q9UBN7 whole entry): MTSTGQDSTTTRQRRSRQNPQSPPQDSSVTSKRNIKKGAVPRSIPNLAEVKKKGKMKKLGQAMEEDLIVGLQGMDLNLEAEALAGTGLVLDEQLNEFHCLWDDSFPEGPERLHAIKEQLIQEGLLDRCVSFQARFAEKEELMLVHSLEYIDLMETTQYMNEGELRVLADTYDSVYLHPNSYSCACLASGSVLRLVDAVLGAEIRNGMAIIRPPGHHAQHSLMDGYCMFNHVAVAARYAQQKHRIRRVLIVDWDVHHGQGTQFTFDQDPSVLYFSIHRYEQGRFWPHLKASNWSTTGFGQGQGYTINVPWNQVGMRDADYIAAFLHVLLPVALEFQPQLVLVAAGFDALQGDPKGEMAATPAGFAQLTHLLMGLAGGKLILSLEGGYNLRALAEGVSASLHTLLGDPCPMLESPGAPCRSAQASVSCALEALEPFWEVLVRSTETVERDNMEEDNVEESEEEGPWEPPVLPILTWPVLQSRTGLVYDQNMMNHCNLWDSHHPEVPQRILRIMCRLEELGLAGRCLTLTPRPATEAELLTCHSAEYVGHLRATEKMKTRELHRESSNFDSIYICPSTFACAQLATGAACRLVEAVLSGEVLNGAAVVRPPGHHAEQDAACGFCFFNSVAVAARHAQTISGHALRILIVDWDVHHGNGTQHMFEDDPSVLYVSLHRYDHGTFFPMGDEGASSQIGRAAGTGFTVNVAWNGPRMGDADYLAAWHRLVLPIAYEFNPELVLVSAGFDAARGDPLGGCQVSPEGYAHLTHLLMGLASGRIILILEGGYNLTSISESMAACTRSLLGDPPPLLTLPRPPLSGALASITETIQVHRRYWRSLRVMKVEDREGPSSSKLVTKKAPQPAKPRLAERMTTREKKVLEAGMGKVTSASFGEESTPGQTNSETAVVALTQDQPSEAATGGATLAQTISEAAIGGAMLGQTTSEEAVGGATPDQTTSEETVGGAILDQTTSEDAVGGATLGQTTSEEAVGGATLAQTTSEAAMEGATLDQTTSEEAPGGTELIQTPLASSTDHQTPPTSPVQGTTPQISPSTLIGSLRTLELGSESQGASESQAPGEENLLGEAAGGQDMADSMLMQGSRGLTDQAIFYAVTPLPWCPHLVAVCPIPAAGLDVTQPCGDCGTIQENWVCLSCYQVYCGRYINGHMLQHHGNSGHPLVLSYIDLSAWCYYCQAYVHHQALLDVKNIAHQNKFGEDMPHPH
Briefly: Inhibition of human HDAC6 using Boc-Lys (acetyl)-AMC as substrate incubated for 1 hr followed by substrate addition and further incubated for 2 hrs by fluorescence assay.

pIC50: −log10 of the molar value.

Sequence of Histone deacetylase 3 (O15379 whole entry): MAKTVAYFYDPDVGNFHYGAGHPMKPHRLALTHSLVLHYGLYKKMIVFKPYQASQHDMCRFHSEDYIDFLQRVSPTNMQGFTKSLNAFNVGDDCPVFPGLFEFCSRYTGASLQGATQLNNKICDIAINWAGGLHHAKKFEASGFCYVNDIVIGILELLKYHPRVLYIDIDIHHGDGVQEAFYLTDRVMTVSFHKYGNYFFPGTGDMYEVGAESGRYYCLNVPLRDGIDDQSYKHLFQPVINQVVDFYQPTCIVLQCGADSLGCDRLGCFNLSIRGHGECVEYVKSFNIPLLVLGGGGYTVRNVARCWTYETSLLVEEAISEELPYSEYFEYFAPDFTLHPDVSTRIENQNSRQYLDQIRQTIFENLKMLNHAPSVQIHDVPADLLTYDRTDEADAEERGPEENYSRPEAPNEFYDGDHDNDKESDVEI
Sequence of Histone deacetylase 4 (P56524 whole entry): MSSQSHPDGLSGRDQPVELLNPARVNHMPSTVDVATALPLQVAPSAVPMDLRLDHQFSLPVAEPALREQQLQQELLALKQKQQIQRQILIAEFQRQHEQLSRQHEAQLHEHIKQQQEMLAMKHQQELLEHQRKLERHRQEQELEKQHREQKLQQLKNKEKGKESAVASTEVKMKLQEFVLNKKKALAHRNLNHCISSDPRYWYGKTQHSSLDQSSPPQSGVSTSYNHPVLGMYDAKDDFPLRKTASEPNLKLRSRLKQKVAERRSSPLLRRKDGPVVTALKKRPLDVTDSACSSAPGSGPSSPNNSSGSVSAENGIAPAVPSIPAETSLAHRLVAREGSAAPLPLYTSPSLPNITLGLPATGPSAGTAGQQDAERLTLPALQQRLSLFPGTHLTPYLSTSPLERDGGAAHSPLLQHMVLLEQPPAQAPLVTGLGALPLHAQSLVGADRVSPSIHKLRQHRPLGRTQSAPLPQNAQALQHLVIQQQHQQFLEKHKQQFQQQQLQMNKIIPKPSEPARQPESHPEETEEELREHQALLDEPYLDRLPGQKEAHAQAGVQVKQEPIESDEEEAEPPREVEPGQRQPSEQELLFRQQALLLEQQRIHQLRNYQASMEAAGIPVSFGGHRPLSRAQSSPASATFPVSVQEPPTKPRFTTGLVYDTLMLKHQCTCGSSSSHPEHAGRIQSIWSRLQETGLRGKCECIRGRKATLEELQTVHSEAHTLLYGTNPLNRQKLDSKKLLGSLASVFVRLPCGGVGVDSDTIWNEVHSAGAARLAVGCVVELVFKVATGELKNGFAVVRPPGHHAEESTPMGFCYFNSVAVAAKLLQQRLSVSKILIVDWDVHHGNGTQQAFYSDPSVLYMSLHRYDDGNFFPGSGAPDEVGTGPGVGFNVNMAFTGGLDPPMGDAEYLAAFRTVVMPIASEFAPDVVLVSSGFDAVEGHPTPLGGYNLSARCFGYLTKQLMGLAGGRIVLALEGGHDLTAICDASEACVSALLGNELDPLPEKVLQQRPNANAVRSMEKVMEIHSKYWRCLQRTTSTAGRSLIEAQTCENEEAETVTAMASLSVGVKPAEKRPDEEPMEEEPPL
Sequence of Histone deacetylase 9 (Q9UKV0 whole entry): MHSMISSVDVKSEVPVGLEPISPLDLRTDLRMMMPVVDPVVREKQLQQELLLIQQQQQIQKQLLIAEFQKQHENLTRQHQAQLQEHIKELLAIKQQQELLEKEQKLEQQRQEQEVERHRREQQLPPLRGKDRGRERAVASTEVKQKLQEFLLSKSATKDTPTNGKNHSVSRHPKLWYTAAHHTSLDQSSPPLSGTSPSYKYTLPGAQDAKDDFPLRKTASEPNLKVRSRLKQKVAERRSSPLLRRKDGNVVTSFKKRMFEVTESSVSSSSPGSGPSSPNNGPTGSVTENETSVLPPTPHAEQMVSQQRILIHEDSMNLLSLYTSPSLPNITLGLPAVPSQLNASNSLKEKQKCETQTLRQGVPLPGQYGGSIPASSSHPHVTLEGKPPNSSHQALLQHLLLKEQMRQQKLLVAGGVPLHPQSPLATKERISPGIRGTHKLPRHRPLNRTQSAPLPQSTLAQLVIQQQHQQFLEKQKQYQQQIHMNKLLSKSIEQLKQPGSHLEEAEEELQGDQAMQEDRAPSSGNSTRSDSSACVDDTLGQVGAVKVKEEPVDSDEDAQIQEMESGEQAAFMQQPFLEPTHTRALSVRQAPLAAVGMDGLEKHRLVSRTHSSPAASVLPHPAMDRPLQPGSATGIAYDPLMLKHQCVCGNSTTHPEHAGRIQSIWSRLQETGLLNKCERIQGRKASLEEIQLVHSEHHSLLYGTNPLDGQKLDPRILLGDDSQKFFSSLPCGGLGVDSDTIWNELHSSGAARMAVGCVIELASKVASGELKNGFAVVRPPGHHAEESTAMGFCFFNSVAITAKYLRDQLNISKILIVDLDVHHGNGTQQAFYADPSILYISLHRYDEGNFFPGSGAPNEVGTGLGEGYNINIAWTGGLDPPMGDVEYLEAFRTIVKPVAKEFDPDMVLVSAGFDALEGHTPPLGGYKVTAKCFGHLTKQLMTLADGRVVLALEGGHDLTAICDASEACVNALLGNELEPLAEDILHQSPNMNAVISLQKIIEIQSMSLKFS

As for `CCCNNC(=O)c1ccc(CNC(=O)[C@H](CC(C)C)NC(=O)[C@@H](O)[C@H](N)Cc2ccccc2)cc1.Cl`, the Stability result in data set [1], in data set [5] and in data set [6] was “Stable” throughout. In addition, the pIC50 is under 5.00 in data set [2]; under 5.00 in data set [3]; 7.70 in data set [4]; under 5.00 in data set [7]; under 5.00 in data set [8].

(Values after ChEMBL document CHEMBL5634092, “Design, synthesis, and biological evaluation of novel HDAC/CD13 dual inhibitors for the treatment of cancer” (Eur J Med Chem, 2023).)
